# Laboratory results taken from PubChem BioAssay (NCI).
#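 These data come from cells grown in 96-well plates and exposed to compound for 48 hours at five concentrations. GI50 is the concentration that inhibits growth by half. At the TGI there is no net growth.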
# Test system: TK-10 renal
# Experiment: NCI tumour cell line growth inhibition, 48 h
row,SMILES,TGI [µM]
1,O=C(/C=C/C1C(=O)NC(=O)NC1=O)CC(=O)C(=O)Nc1cc(Cl)c(Cl)cc1Cl,> 100
2,c1ccc(-c2nnc3nn4c(-c5ccccc5)cnnc4c3c2-c2ccccc2)cc1,83.1
3,COc1cc(C(C#N)NNc2nc(C)cc(=O)[nH]2)cc(OC)c1OC (centres undefined),> 100
4,COC(=O)C(C(=O)C(N)=O)c1csc(-n2nc(-c3ccccc3)cc2-c2ccccc2)n1 (centres undefined),> 31.6

# Test system: RXF-631 renal
# Experiment: NCI tumour cell line growth inhibition, 48 h
row,SMILES,TGI [µM]
1,c1ccc(-c2ccnc3c2ccc2c(-c4ccccc4)ccnc23)cc1,6.19
2,CC(=O)NC(CCCN(Cc1ccccc1)C(=O)N(C)N=O)C(=O)NCc1ccccc1 (centres undefined),> 100
3,[Cl-].[Fe+2].c1ccc(-c2ccnc3c2ccc2c(-c4ccccc4)ccnc23)cc1.c1ccc(-c2ccnc3c2ccc2c(-c4ccccc4)ccnc23)cc1.c1ccc(-c2ccnc3c2ccc2c(-c4ccccc4)ccnc23)cc1,> 100
4,c1ccc(-c2nnc3nn4c(-c5ccccc5)cnnc4c3c2-c2ccccc2)cc1,66.7

# Test system: HCC-2998 colon
# Experiment: NCI tumour cell line growth inhibition, 48 h
row,SMILES,TGI [µM]
1,c1ccc(-c2ccnc3c2ccc2c(-c4ccccc4)ccnc23)cc1,14.3
2,CC(=O)NC(CCCN(Cc1ccccc1)C(=O)N(C)N=O)C(=O)NCc1ccccc1 (centres undefined),> 100
3,O=C(/C=C/C1C(=O)NC(=O)NC1=O)CC(=O)C(=O)Nc1cc(Cl)c(Cl)cc1Cl,> 100
4,c1ccc(-c2nnc3nn4c(-c5ccccc5)cnnc4c3c2-c2ccccc2)cc1,> 100
5,CCOC(=O)C(C)N1C(=O)c2ccccc2S1(=O)=O (centres undefined),> 100
6,COC(=O)C(C(=O)C(N)=O)c1csc(-n2nc(-c3ccccc3)cc2-c2ccccc2)n1 (centres undefined),> 31.6

# Test system: NCI/ADR-RES ovarian
# Experiment: NCI tumour cell line growth inhibition, 48 h
row,SMILES,TGI [µM]
1,CCOC(=O)C(C)N1C(=O)c2ccccc2S1(=O)=O (centres undefined),> 100

# Test system: SNB-78 CNS
# Experiment: NCI tumour cell line growth inhibition, 48 h
SMILES,TGI [µM],GI50 [µM]
c1ccc(-c2ccnc3c2ccc2c(-c4ccccc4)ccnc23)cc1,18,–
CC(=O)NC(CCCN(Cc1ccccc1)C(=O)N(C)N=O)C(=O)NCc1ccccc1 (centres undefined),> 100,–
O=C(/C=C/C1C(=O)NC(=O)NC1=O)CC(=O)C(=O)Nc1cc(Cl)c(Cl)cc1Cl,> 100,–
[Cl-].[Fe+2].c1ccc(-c2ccnc3c2ccc2c(-c4ccccc4)ccnc23)cc1.c1ccc(-c2ccnc3c2ccc2c(-c4ccccc4)ccnc23)cc1.c1ccc(-c2ccnc3c2ccc2c(-c4ccccc4)ccnc23)cc1,> 100,–
c1ccc(-c2nnc3nn4c(-c5ccccc5)cnnc4c3c2-c2ccccc2)cc1,> 100,–
CCOC(=O)C(C)N1C(=O)c2ccccc2S1(=O)=O (centres undefined),> 100,> 100
COc1cc(C(C#N)NNc2nc(C)cc(=O)[nH]2)cc(OC)c1OC (centres undefined),> 100,–
COC(=O)C(C(=O)C(N)=O)c1csc(-n2nc(-c3ccccc3)cc2-c2ccccc2)n1 (centres undefined),> 31.6,–

# Test system: ACHN renal
# Experiment: NCI tumour cell line growth inhibition, 48 h
row,SMILES,TGI [µM]
1,c1ccc(-c2ccnc3c2ccc2c(-c4ccccc4)ccnc23)cc1,9.45
2,CC(=O)NC(CCCN(Cc1ccccc1)C(=O)N(C)N=O)C(=O)NCc1ccccc1 (centres undefined),> 100
3,O=C(/C=C/C1C(=O)NC(=O)NC1=O)CC(=O)C(=O)Nc1cc(Cl)c(Cl)cc1Cl,> 100
4,c1ccc(-c2nnc3nn4c(-c5ccccc5)cnnc4c3c2-c2ccccc2)cc1,> 100
5,COc1cc(C(C#N)NNc2nc(C)cc(=O)[nH]2)cc(OC)c1OC (centres undefined),> 100
6,COC(=O)C(C(=O)C(N)=O)c1csc(-n2nc(-c3ccccc3)cc2-c2ccccc2)n1 (centres undefined),> 31.6

# Test system: 786-0 renal
# Experiment: NCI tumour cell line growth inhibition, 48 h
row,SMILES,TGI [µM]
1,c1ccc(-c2ccnc3c2ccc2c(-c4ccccc4)ccnc23)cc1,10.4
2,CC(=O)NC(CCCN(Cc1ccccc1)C(=O)N(C)N=O)C(=O)NCc1ccccc1 (centres undefined),> 100
3,O=C(/C=C/C1C(=O)NC(=O)NC1=O)CC(=O)C(=O)Nc1cc(Cl)c(Cl)cc1Cl,> 100
4,c1ccc(-c2nnc3nn4c(-c5ccccc5)cnnc4c3c2-c2ccccc2)cc1,25.8
5,COc1cc(C(C#N)NNc2nc(C)cc(=O)[nH]2)cc(OC)c1OC (centres undefined),> 100
6,COC(=O)C(C(=O)C(N)=O)c1csc(-n2nc(-c3ccccc3)cc2-c2ccccc2)n1 (centres undefined),> 31.6

# Test system: A549 NSCLC
# Experiment: NCI tumour cell line growth inhibition, 48 h
row,SMILES,TGI [µM]
1,c1ccc(-c2ccnc3c2ccc2c(-c4ccccc4)ccnc23)cc1,8.71
2,CC(=O)NC(CCCN(Cc1ccccc1)C(=O)N(C)N=O)C(=O)NCc1ccccc1 (centres undefined),> 100
3,O=C(/C=C/C1C(=O)NC(=O)NC1=O)CC(=O)C(=O)Nc1cc(Cl)c(Cl)cc1Cl,> 100
4,c1ccc(-c2nnc3nn4c(-c5ccccc5)cnnc4c3c2-c2ccccc2)cc1,> 100
5,CCOC(=O)C(C)N1C(=O)c2ccccc2S1(=O)=O (centres undefined),> 100
6,COc1cc(C(C#N)NNc2nc(C)cc(=O)[nH]2)cc(OC)c1OC (centres undefined),> 100
7,COC(=O)C(C(=O)C(N)=O)c1csc(-n2nc(-c3ccccc3)cc2-c2ccccc2)n1 (centres undefined),> 31.6

# Test system: SK-OV-3 ovarian
# Experiment: NCI tumour cell line growth inhibition, 48 h
row,SMILES,TGI [µM]
1,c1ccc(-c2ccnc3c2ccc2c(-c4ccccc4)ccnc23)cc1,11.6
2,CC(=O)NC(CCCN(Cc1ccccc1)C(=O)N(C)N=O)C(=O)NCc1ccccc1 (centres undefined),> 100
3,O=C(/C=C/C1C(=O)NC(=O)NC1=O)CC(=O)C(=O)Nc1cc(Cl)c(Cl)cc1Cl,> 100
4,CCOC(=O)C(C)N1C(=O)c2ccccc2S1(=O)=O (centres undefined),> 100
5,COc1cc(C(C#N)NNc2nc(C)cc(=O)[nH]2)cc(OC)c1OC (centres undefined),> 100
6,COC(=O)C(C(=O)C(N)=O)c1csc(-n2nc(-c3ccccc3)cc2-c2ccccc2)n1 (centres undefined),> 31.6
